# Measurements published in publication PMC7937321 (Genes and Environment, 2021).
# Tests used:
# [1] = test system: human lymphoblastoid TK6 cells, thymidine kinase gene; assay: TK gene mutation assay (TK6 assay, OECD TG490); details: for MF: graph data
# Procedure: In principle, this collaborative study conducted the treatment of test substances, the dose finding, and the main test of TK6 assays, according to the OECD Guideline TG490 [17]. […] Briefly, test substances were dissolved in an appropriate solvent (DMSO or ethanol) and then serially diluted to prepare final concentrations. […] The 4 h and 24 h treatments were conducted by shaking and static exposures, respectively. After treatment with test substances, cells were centrifuged (1000 rpm, 5 min), supernatants were removed, and cells were washed with a serum-free medium or Hank’s Balanced Salt Solution. After centrifugation (1000 rpm, 5 min) to remove the supernatant, cells (2 × 10^7 cells) were dispersed in an RPMI medium containing 10% serum, and cell concentration was measured. Treated cells were cultured at 37 °C with 5% CO2 condition and used for TK6 assays. At that time, to calculate the cloning efficiency (CE) (Eq. 1), the cells were cultured in a 96-well microplate at a concentration of about 1.6 cells/well for 2 weeks.
# The TK6 assay is conducted between 20 and 10% RS0 as a maximum dose if cytotoxicity is observed. If no precipitate or limiting cytotoxicity was observed, the maximum dose was the lowest concentration among 10 mM, 2 mg/mL, or 2 μL/mL of the test substance. When the main TK6 assay was difficult to conduct under the condition of RS0 values from 20 to 10%, the test was conducted between 20 and 10% relative total growth (RTG), described later, as a maximum dose.
# On the third day of culture, CE3 plates for determining plating efficiency and mutant frequency (MF) plates for mutation detection were prepared. CE3 plates were seeded in 96-well microplates at a concentration of about 1.6 cells/well. The MF plates were seeded in 96-well microplates at 40,000 cells/well in the presence of 3 μg/mL of trifluorothymidine (Sigma Aldrich).
# Mutant colonies in MF plates were calculated using Eq. 7 using the Poisson distribution. EW was the number of wells without colonies, and TW was the total number of wells. N was the average number of cells per well (N = 40,000 in this study). The data were statistically analyzed by Omori’s method, a modified Dunnett’s procedure for identifying clear negatives, a Simpson–Margolin procedure for detecting downturn data, and a trend test to evaluate the dose dependency [42, 43]. The acceptability criterion for the test was that the MF value of the positive control group of each laboratory was increased with statistical significance compared with that of the concurrent negative control group.
# rodent = details: rodent; ref [20]-[41], Table 2; cited from earlier work
# [2] = test system: L5178Y mouse lymphoma cells; details: ref [27], [46]-[53], Table 3, cited from earlier work
# [3] = 24 h treatment, -S9 mix, 173.70 μg/mL
# [4] = 24 h treatment, -S9 mix, 277.90 μg/mL
# [5] = 24 h treatment, -S9 mix, 444.70 μg/mL
# [6] = 24 h treatment, -S9 mix, 711.5 μg/mL
# [7] = 24 h treatment, -S9 mix, 1138.4 μg/mL
# [8] = 24 h treatment, -S9 mix, 1821.4 μg/mL
# [9] = Long-term treatment without metabolic activation
# [10] = Short treatment, +S9 mix, dose 173.7 μg/mL
# [11] = Short treatment, +S9 mix, dose 277.9 μg/mL
# [12] = Short treatment, +S9 mix, dose 445 μg/mL
# [13] = Short treatment, +S9 mix, dose 712 μg/mL
# [14] = Short treatment, +S9 mix, dose 1138 μg/mL
# [15] = Short treatment, +S9 mix, dose 1821 μg/mL
# [16] = Short treatment, -S9 mix, dose 173.70 μg/mL
# [17] = Short treatment, -S9 mix, dose 277.90 μg/mL
# [18] = Short treatment, -S9 mix, dose 444.70 μg/mL
# [19] = Short treatment, -S9 mix, dose 711.5 μg/mL
# [20] = Short treatment, -S9 mix, dose 1138.4 μg/mL
# [21] = Short treatment, -S9 mix, dose 1821.4 μg/mL
smiles,measurement,setting,value
Nc1cc([N+](=O)[O-])ccc1C(=O)O [4-Nitroanthranilic acid],"TK6 assay result (mutant frequency increase, judgment)",[1]; 4h treatment (+S9),no increase in mutation frequency
same,"TK6 assay result (mutant frequency increase, judgment)","[1]; 4h treatment (+S9), listed as 4-nitroanthranilic acid",negative
same,"TK6 assay result (mutant frequency increase, judgment)",[1]; 4h treatment (-S9),no increase in mutation frequency
same,"TK6 assay result (mutant frequency increase, judgment)","[1]; 4h treatment (-S9), listed as 4-nitroanthranilic acid",negative
same,"TK mutation assay, Long term","[1]; 24 h, without S9",Pos
same,"TK6 assay result (mutant frequency increase, judgment)",[1]; 24h treatment (-S9),statistically significant increase in mutation frequency
same,"TK6 assay result (mutant frequency increase, judgment)","[1]; 24h treatment (-S9), listed as 4-nitroanthranilic acid",positive
same,%SG,[1]; [3],68.7%
same,Mut. freq. (×10-6) N-MF,[1]; [3],1.8 ×10-6
same,Mut. freq. (×10-6) S-MF,[1]; [3],3.9 ×10-6
same,Mut. freq. (×10-6) T-MF,[1]; [3],5.6 ×10-6
same,%SG,[1]; [4],61.0%
same,Mut. freq. (×10-6) N-MF,[1]; [4],3.1 ×10-6
same,Mut. freq. (×10-6) S-MF,[1]; [4],4.8 ×10-6
same,Mut. freq. (×10-6) T-MF,[1]; [4],7.9 ×10-6
same,%SG,[1]; [5],63.1%
same,Mut. freq. (×10-6) N-MF,[1]; [5],2.6 ×10-6
same,Mut. freq. (×10-6) S-MF,[1]; [5],4.4 ×10-6
same,Mut. freq. (×10-6) T-MF,[1]; [5],7.0 ×10-6
same,%SG,[1]; [6],72.4%
same,Mut. freq. (×10-6) N-MF,[1]; [6],3.0 ×10-6
same,Mut. freq. (×10-6) S-MF,[1]; [6],7.8 ×10-6
same,Mut. freq. (×10-6) T-MF,[1]; [6],10.7 ×10-6
same,%SG,[1]; [7],57.1%
same,Mut. freq. (×10-6) N-MF,[1]; [7],4.1 ×10-6
same,Mut. freq. (×10-6) S-MF,[1]; [7],5.5 ×10-6
same,Mut. freq. (×10-6) T-MF,[1]; [7],9.7 ×10-6
same,%SG,[1]; [8],68.5%
same,Mut. freq. (×10-6) N-MF,[1]; [8],4.4 ×10-6
same,Mut. freq. (×10-6) S-MF,[1]; [8],9.5 ×10-6
same,Mut. freq. (×10-6) T-MF,[1]; [8],13.9 ×10-6
same,"Dunnett type test, test statistic",[1]; [9],2.990
same,"Trend test, test statistic",[1]; [9],4.178
same,%SG,[1]; [10],38.9%
same,Mut. freq. (×10-6) N-MF,[1]; [10],6.7 ×10-6
same,Mut. freq. (×10-6) S-MF,[1]; [10],4.3 ×10-6
same,Mut. freq. (×10-6) T-MF,[1]; [10],10.9 ×10-6
same,%SG,[1]; [11],40.2%
same,Mut. freq. (×10-6) N-MF,[1]; [11],6.1 ×10-6
same,Mut. freq. (×10-6) S-MF,[1]; [11],4.1 ×10-6
same,Mut. freq. (×10-6) T-MF,[1]; [11],10.3 ×10-6
same,%SG,[1]; [12],44.7%
same,Mut. freq. (×10-6) N-MF,[1]; [12],4.6 ×10-6
same,Mut. freq. (×10-6) S-MF,[1]; [12],3.7 ×10-6
same,Mut. freq. (×10-6) T-MF,[1]; [12],8.4 ×10-6
same,%SG,[1]; [13],49.2%
same,Mut. freq. (×10-6) N-MF,[1]; [13],5.5 ×10-6
same,Mut. freq. (×10-6) S-MF,[1]; [13],5.3 ×10-6
same,Mut. freq. (×10-6) T-MF,[1]; [13],10.7 ×10-6
same,%SG,[1]; [14],37.9%
same,Mut. freq. (×10-6) N-MF,[1]; [14],6.4 ×10-6
same,Mut. freq. (×10-6) S-MF,[1]; [14],3.9 ×10-6
same,Mut. freq. (×10-6) T-MF,[1]; [14],10.3 ×10-6
same,%SG,[1]; [15],43.4%
same,Mut. freq. (×10-6) N-MF,[1]; [15],6.4 ×10-6
same,Mut. freq. (×10-6) S-MF,[1]; [15],4.9 ×10-6
same,Mut. freq. (×10-6) T-MF,[1]; [15],11.3 ×10-6
same,%SG,[1]; [16],60.5%
same,Mut. freq. (×10-6) N-MF,[1]; [16],3.6 ×10-6
same,Mut. freq. (×10-6) S-MF,[1]; [16],5.5 ×10-6
same,Mut. freq. (×10-6) T-MF,[1]; [16],9.0 ×10-6
same,%SG,[1]; [17],56.6%
same,Mut. freq. (×10-6) N-MF,[1]; [17],3.8 ×10-6
same,Mut. freq. (×10-6) S-MF,[1]; [17],4.9 ×10-6
same,Mut. freq. (×10-6) T-MF,[1]; [17],8.7 ×10-6
same,%SG,[1]; [18],46.7%
same,Mut. freq. (×10-6) N-MF,[1]; [18],4.2 ×10-6
same,Mut. freq. (×10-6) S-MF,[1]; [18],3.7 ×10-6
same,Mut. freq. (×10-6) T-MF,[1]; [18],7.9 ×10-6
same,%SG,[1]; [19],48.9%
same,Mut. freq. (×10-6) N-MF,[1]; [19],4.3 ×10-6
same,Mut. freq. (×10-6) S-MF,[1]; [19],4.2 ×10-6
same,Mut. freq. (×10-6) T-MF,[1]; [19],8.5 ×10-6
same,%SG,[1]; [20],52.7%
same,Mut. freq. (×10-6) N-MF,[1]; [20],3.7 ×10-6
same,Mut. freq. (×10-6) S-MF,[1]; [20],4.1 ×10-6
same,Mut. freq. (×10-6) T-MF,[1]; [20],7.8 ×10-6
same,%SG,[1]; [21],65.9%
same,Mut. freq. (×10-6) N-MF,[1]; [21],3.0 ×10-6
same,Mut. freq. (×10-6) S-MF,[1]; [21],5.9 ×10-6
same,Mut. freq. (×10-6) T-MF,[1]; [21],9.0 ×10-6
same,"Dunnett type test, test statistic",[1]; Short-term treatment with metabolic activation,0.732
same,"Dunnett type test, test statistic",[1]; Short-term treatment without metabolic activation,0.791
same,MF,"[1]; 24 h, -S9 mix, 173.70 μg/mL",5.6
same,MF,"[1]; 24 h, -S9 mix, 277.90 μg/mL",7.9
same,MF,"[1]; 24 h, -S9 mix, 444.70 μg/mL",7.0
same,MF,"[1]; 24 h, -S9 mix, 711.5 μg/mL",10.7
same,MF,"[1]; 24 h, -S9 mix, 1138.4 μg/mL",9.7
same,MF,"[1]; 24 h, -S9 mix, 1821.4 μg/mL",13.9
same,MF,[1]; [10],10.9
same,MF,[1]; [11],10.3
same,MF,"[1]; Short treatment, +S9 mix, dose 444.7 μg/mL",8.4
same,MF,"[1]; Short treatment, +S9 mix, dose 711.5 μg/mL",10.7
same,MF,"[1]; Short treatment, +S9 mix, dose 1138.4 μg/mL",10.3
same,MF,"[1]; Short treatment, +S9 mix, dose 1821.4 μg/mL",11.3
same,MF,[1]; [16],9.0
same,MF,[1]; [17],8.7
same,MF,[1]; [18],7.9
same,MF,[1]; [19],8.5
same,MF,[1]; [20],7.8
same,MF,[1]; [21],9.0
same,"TK mutation assay, With S9","[1]; short-term 4 h, with rat liver S9",Neg
same,"TK mutation assay, Without S9","[1]; short-term 4 h, without S9",Neg
same,Carcinogenicity Studies,rodent,Neg
same,"MLA (TK gene locus), With S9",[2]; with S9,Pos
same,"MLA (TK gene locus), Without S9",[2]; without S9,Equivocal^d
